Experimental data taken from patent US11685744B2, “CDK inhibitors and their use as pharmaceuticals” (Prelude Therapeutics, Incorporated, priority 2020, dated 2023).

How the values were obtained:
CDK4/Cyclin D1 = CDK4/Cyclin D1 (Homo sapiens (Human), UniProt P11802); test: CDK4/CyclinD1 enzymatic activity assay (TR-FRET); type: biochemical; details: ATP 2 mM, read-out: CDK4_D1 IC50
Outline: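 Insect-cell CDK4/Cyclin D1 (1 nM) with ULight-4E-BP1 (100 nM) and 2 mM ATP in HEPES pH 7.4 buffer, preincubated 20 min with compound (9-dose, 3-fold dilutions); 10 mM MgCl2 started the reaction, run 60 min at 37 °C. EDTA/Eu-anti-phospho-4E-BP1 TR-FRET detection; IC50 from 4-parameter Hill fit.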

CDK6/Cyclin D1 = CDK6/Cyclin D1 (Homo sapiens (Human), UniProt Q00534); test: CDK6/CyclinD1 enzymatic activity assay (TR-FRET); type: biochemical; details: ATP 250 μM, read-out: CDK6_D1 IC50
CDK6/Cyclin D1, sequence (Q00534 whole entry): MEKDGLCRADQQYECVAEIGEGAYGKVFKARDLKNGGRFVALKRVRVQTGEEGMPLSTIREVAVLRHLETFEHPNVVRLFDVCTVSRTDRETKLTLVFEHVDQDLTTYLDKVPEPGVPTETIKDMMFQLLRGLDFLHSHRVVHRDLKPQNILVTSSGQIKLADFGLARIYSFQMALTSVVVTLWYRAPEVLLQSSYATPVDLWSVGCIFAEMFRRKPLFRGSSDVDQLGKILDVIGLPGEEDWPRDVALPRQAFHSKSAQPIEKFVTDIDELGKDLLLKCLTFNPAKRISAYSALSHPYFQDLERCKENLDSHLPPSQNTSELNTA
CDK6/Cyclin D1, sequence (P24385 whole entry partner): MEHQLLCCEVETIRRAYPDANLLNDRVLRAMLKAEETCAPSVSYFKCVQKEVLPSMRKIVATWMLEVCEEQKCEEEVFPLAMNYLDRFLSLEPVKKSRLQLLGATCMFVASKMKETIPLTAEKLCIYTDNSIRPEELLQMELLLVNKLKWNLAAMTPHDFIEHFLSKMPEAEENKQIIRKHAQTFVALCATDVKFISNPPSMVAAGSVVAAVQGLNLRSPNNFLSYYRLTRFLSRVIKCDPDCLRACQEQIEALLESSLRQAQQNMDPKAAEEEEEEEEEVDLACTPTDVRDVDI
Experimental: CDK6/CyclinD1 Enzymatic Activity Assay
The inhibitory activity of compounds was evaluated in vitro using TR-FRET assay with white 384-well low volume microplate (Greiner Bio-One). CDK6/Cyclin D1 catalyzed phosphorylation of peptide in the presence and absence of compounds was measured and used in IC50 determination. Recombinant protein complex CDK6/Cyclin D1, expressed from insect cell, was purchased from ProQinase. Testing compounds were dissolved in DMSO at 0.1 mM and tested in 9-dose IC50 mode. The reaction mixture was prepared by mixing CDK6/Cyclin D1 (1 nM final), ULight-4E-BP1 (100 nM final, Perkinelmer, TRF0128-D), and ATP (250 μM final) in assay buffer (20 mM of HEPES pH 7.4, 1 mM of EGTA, 0.05% BSA, 0.005% Tween 20, and 1 mM TCEP). The compound of interest in DMSO was added to each well in 3-fold serial dilution by dispenser (TECAN D300E). After 20 minutes preincubation at room temperature, 0.1 μL MgCl2 (10 mM final) was added to initiate the reaction. Following a 60 minutes incubation at 37° C., the reaction was stopped by addition of 2 μL of quenching buffer consisting of Lance detection buffer (Perkinelmer CR97-100C), 2 nM LANCE Ultra Europium-anti-P-4E-BP1 (Perkinelmer, TRF0216-D), 10 mM EDTA, and incubate at room temperature for additional 60 minutes in dark. The reaction signal was measured by Envision multimode plate reader (PerkinElmer, 2102-0010). IC50 values were determined by fitting the data to the standard 4 parameters with Hill Slope using GraphPad Prism software.

[1] = test system: MCF7 adenocarcinoma cell line; test: Cell proliferation studies in MCF7 cells (ATP-Lite, 10 days); type: cell-based; details: Homo sapiens, 240 h, read-out: PROLIFERATION_CTG_MCF7 IC50
Outline: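 Cells were seeded at 100 or 200 per well in DMEM with 10% FBS and dosed in quadruplicate over a 9-point 3-fold dilution. Incubation lasted 10 days at 37 °C, with media exchange and re-dosing on day 5. Viability was read by ATP-Lite luminescence and normalised to background and DMSO, giving IC50.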

[2] = Brain-to-plasma ratio (Kp) determination in Sprague-Dawley rats; details: male, rat, po, 10 mg/kg
[3] = brain (homogenate) versus plasma

CDK4/Cyclin D1, sequence (P11802 whole entry): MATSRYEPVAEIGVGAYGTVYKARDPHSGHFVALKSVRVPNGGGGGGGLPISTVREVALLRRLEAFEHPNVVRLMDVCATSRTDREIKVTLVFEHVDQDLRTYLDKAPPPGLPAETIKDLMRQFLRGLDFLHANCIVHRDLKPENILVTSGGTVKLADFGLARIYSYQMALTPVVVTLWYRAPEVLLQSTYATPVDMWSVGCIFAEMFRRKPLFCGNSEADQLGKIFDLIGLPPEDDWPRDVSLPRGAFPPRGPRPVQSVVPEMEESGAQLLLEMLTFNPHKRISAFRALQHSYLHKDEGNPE
CDK4/Cyclin D1, sequence (P24385 whole entry partner): as the sequence (P24385 whole entry partner) above

| IC50 (CDK4/Cyclin D1) | IC50 (CDK6/Cyclin D1) | IC50 [1] | Kp at 4 h [2, 3] | Kp at 4 h ([2]; brain / plasma) | Structure (SMILES) |
| --- | --- | --- | --- | --- | --- |
| ≤ 20 nM | 20 to 200 nM | 20 to 200 nM | 1 to 3 |  | CCN1CCN(c2ccc(Nc3ncc(F)c(-c4sc5c(nc(C)n5C5CCCC5)c4C)n3)nc2)CC1 [Example 1, 4-(3-Cyclopentyl-2,6-dimethyl-3H-thieno[2,3-d]imidazol-5-yl)-N-(5-(4-ethylpiperazin-1-yl)pyridin-2-yl)-5-fluoropyrimidin-2-amine] |
| ≤ 20 nM | ≤ 20 nM | ≤ 20 nM | 1 to 3 |  | CCN1CCN(c2ccc(Nc3ncc(F)c(-c4sc5c(nc(C)n5C(C)C)c4C)n3)nc2)CC1 [Example 2, N-(5-(4-Ethylpiperazin-1-yl)pyridin-2-yl)-5-fluoro-4-(3-isopropyl-2,6-dimethyl-3H-thieno[2,3-d]imidazol-5-yl)pyrimidin-2-amine] |
| ≤ 20 nM | 20 to 200 nM | 20 to 200 nM | < 1 |  | CCN1CCN(Cc2ccc(Nc3ncc(F)c(-c4sc5c(nc(C)n5C(C)C)c4C)n3)nc2)CC1 [Example 3, N-(5-((4-Ethylpiperazin-1-yl)methyl)pyridin-2-yl)-5-fluoro-4-(3-isopropyl-2,6-dimethyl-3H-thieno[2,3-d]imidazol-5-yl)pyrimidin-2-amine] |
| ≤ 20 nM | ≤ 20 nM | 20 to 200 nM | 1 to 3 |  | CCN1CCN(c2ccc(Nc3ncc(F)c(-c4sc5c(nc(C)n5C5CCC5)c4C)n3)nc2)CC1 [Example 4, 4-(3-Cyclobutyl-2,6-dimethylthieno[2,3-d]imidazol-5-yl)-N-[5-(4-ethylpiperazin-1-yl)pyridin-2-yl]-5-fluoro-pyrimidin-2-amine] |
| ≤ 20 nM | ≤ 20 nM | ≤ 20 nM | 1 to 3 |  | Cc1c(-c2nc(Nc3ccc(N4CCN(C)CC4)cn3)ncc2F)sc2c1nc(C)n2C(C)C [Example 9, 5-Fluoro-4-(3-isopropyl-2,6-dimethyl-3H-thieno[2,3-d]imidazol-5-yl)-N-(5-(4-methylpiperazin-1-yl)pyridin-2-yl)pyrimidin-2-amine] |
| ≤ 20 nM | 20 to 200 nM | 20 to 200 nM | > 3 |  | CCN1CC2(C1)CN(c1ccc(Nc3ncc(F)c(-c4cc5nccc(C(C)C)c5s4)n3)nc1)C2 [Example 23, N-[5-(6-Ethyl-2,6-diazaspiro[3.3]heptan-2-yl)pyridin-2-yl]-5-fluoro-4-(7-propan-2-ylthieno[3,2-b]pyridin-2-yl)pyrimidin-2-amine] |
| ≤ 20 nM | ≤ 20 nM | ≤ 20 nM | 1 to 3 |  | CCN1CCN(c2ccc(Nc3ncc(F)c(-c4cc5c(s4)c(C(C)C)cc[n+]5[O-])n3)nc2)CC1 [Example 50, N-[5-(4-Ethylpiperazin-1-yl)pyridin-2-yl]-5-fluoro-4-(4-oxido-7-propan-2-ylthieno[3,2-b]pyridin-4-ium-2-yl)pyrimidin-2-amine] |
| ≤ 20 nM | ≤ 20 nM | 20 to 200 nM |  | > 3 | Cc1c(-c2nc(Nc3ccc(N4CCN(C)CC4)cn3)ncc2F)sc2c(C(C)C)cn(C)c(=O)c12 [Example 51, 2-[5-Fluoro-2-[[5-(4-methylpiperazin-1-yl)pyridin-2-yl]amino]pyrimidin-4-yl]-3,5-dimethyl-7-propan-2-ylthieno[3,2-c]pyridin-4-one] |
| ≤ 20 nM | ≤ 20 nM | ≤ 20 nM | 1 to 3 |  | CCN1CC2(C1)CN(c1ccc(Nc3ncc(F)c(-c4sc5c(nc(C)n5C(C)C)c4C)n3)nc1)C2 [Example 52, 4-(2,6-Dimethyl-3-propan-2-ylthieno[2,3-d]imidazol-5-yl)-N-[5-(6-ethyl-2,6-diazaspiro[3.3]heptan-2-yl)pyridin-2-yl]-5-fluoropyrimidin-2-amine] |
| ≤ 20 nM | 20 to 200 nM | 20 to 200 nM | < 1 |  | CCN1CCN(C(=O)c2ccc(Nc3ncc(F)c(-c4cc5nc(C)n(C(C)C)c5s4)n3)nc2)CC1 [Example 54, (4-Ethylpiperazin-1-yl)-[6-[[5-fluoro-4-(2-methyl-3-propan-2-ylthieno[2,3-d]imidazol-5-yl)pyrimidin-2-yl]amino]pyridin-3-yl]methanone] |
| ≤ 20 nM | ≤ 20 nM | 20 to 200 nM | > 3 |  | CCN1CC2(C1)CN(c1ccc(Nc3ncc(F)c(-c4sc5c(C(C)C)n(C)nc5c4C)n3)nc1)C2 [Example 55, 4-(2,6-Dimethyl-3-propan-2-ylthieno[3,2-c]pyrazol-5-yl)-N-[5-(6-ethyl-2,6-diazaspiro[3.3]heptan-2-yl)pyridin-2-yl]-5-fluoropyrimidin-2-amine] |
| ≤ 20 nM | ≤ 20 nM | 20 to 200 nM | > 3 |  | Cc1c(-c2nc(Nc3ccc(C4CCN(C)CC4)cn3)ncc2F)sc2c(C(C)C)cn(C)c(=O)c12 [Example 56, 2-(5-Fluoro-2-((5-(1-methylpiperidin-4-yl)pyridin-2-yl)amino)pyrimidin-4-yl)-7-isopropyl-3,5-dimethylthieno[3,2-c]pyridin-4(5H)-one] |
| ≤ 20 nM | ≤ 20 nM | 20 to 200 nM | 1 to 3 |  | CCN1CC2(C1)CN(c1ccc(Nc3ncc(F)c(-c4sc5c(C(C)C)cn(C)c(=O)c5c4C)n3)nc1)C2 [Example 57, 2-(2-((5-(6-Ethyl-2,6-diazaspiro[3.3]heptan-2-yl)pyridin-2-yl)amino)-5-fluoropyrimidin-4-yl)-7-isopropyl-3,5-dimethylthieno[3,2-c]pyridin-4(5H)-one] |
| ≤ 20 nM | ≤ 20 nM | ≤ 20 nM | < 1 |  | Cc1c(-c2nc(Nc3ccc(C4CCN(C)CC4)cn3)ncc2F)sc2c(C(C)C)c[nH]c(=O)c12 [Example 60, 2-(5-Fluoro-2-((5-(1-methylpiperidin-4-yl)pyridin-2-yl)amino)pyrimidin-4-yl)-7-isopropyl-3-methylthieno[3,2-c]pyridin-4(5H)-one] |
| ≤ 20 nM | ≤ 20 nM | ≤ 20 nM | 1 to 3 |  | Cc1c(-c2nc(Nc3ccc(N4CC5(CCN(C)C5)C4)cn3)ncc2F)sc2c(C(C)C)cn(C)c(=O)c12 [Example 61, 2-(5-Fluoro-2-((5-(6-methyl-2,6-diazaspiro[3.4]octan-2-yl)pyridin-2-yl)amino)pyrimidin-4-yl)-7-isopropyl-3,5-dimethylthieno[3,2-c]pyridin-4(5H)-one] |
| 20 to 200 nM | 20 to 200 nM | 200 to 2000 nM | < 1 |  | Cc1nc2cc(-c3nc(Nc4ccc(CN5CCN(CC(F)F)CC5)cn4)ncc3F)sc2n1C(C)C [Example 64, N-[5-[[4-(2,2-Difluoroethyl)piperazin-1-yl]methyl]pyridin-2-yl]-5-fluoro-4-(2-methyl-3-propan-2-ylthieno[2,3-d]imidazol-5-yl)pyrimidin-2-amine] |
| ≤ 20 nM | 20 to 200 nM | 20 to 200 nM | 1 to 3 |  | Cc1c(-c2nc(Nc3ccc(N4CCC(N(C)C)C4)cn3)ncc2F)sc2c1nc(C)n2C(C)C (stereo not shown) [Example 73, N-[5-[3-(Dimethylamino)pyrrolidin-1-yl]pyridin-2-yl]-4-(2,6-dimethyl-3-propan-2-ylthieno[2,3-d]imidazol-5-yl)-5-fluoropyrimidin-2-amine] |
| ≤ 20 nM | ≤ 20 nM | 20 to 200 nM | 1 to 3 |  | Cc1c(-c2nc(Nc3ccc(N4CC5(CCN(C)CC5)C4)cn3)ncc2F)sc2c(C(C)C)cn(C)c(=O)c12 [Example 77, 2-(5-Fluoro-2-((5-(7-methyl-2,7-diazaspiro[3.5]nonan-2-yl)pyridin-2-yl)amino)pyrimidin-4-yl)-7-isopropyl-3,5-dimethylthieno[3,2-c]pyridin-4(5H)-one] |

| Structure (SMILES) | IC50 (CDK4/Cyclin D1) | IC50 (CDK6/Cyclin D1) | IC50 [1] | Kp at 4 h [2, 3] | Kp at 4 h ([2]; brain / plasma) |
| --- | --- | --- | --- | --- | --- |
| CCN1C2CC1CN(c1ccc(Nc3ncc(F)c(-c4cc5nc(C)n(C(C)C)c5s4)n3)nc1)C2 [Example 74, N-[5-(6-ethyl-3,6-Diazabicyclo[3.1.1]heptan-3-yl)pyridin-2-yl]-5-fluoro-4-(2-methyl-3-propan-2-ylthieno[2,3-d]imidazol-5-yl)pyrimidin-2-amine] | ≤ 20 nM | 20 to 200 nM | 20 to 200 nM | < 1 |  |
